Our source for the IC50 values is patent US6911542B2, “Pyrazino[1′,2′:1,6]pyrido[3,4b]indole derivatives” (Lilly Icos LLC., priority 2000, dated 2005).

Molecules are shown by their SMILES.

This test has as its target T1, human recombinant PDE5 (Homo sapiens, UniProt O76074).
T1 construct: host or cells: Saccharomyces cerevisiae, protease-deficient strain BJ2-54 (ATCC 74465)
Put plainly: cGMP-PDE one-step inhibition assay, human recombinant PDE5. The class given is biochemical. Conditions: 0.15 μM 8-[H3]-cGMP, 30 min incubation. On the procedure: The compounds of structural formula (I) were tested for an ability to inhibit PDE5. The ability of a compound to inhibit PDE5 activity is related to the IC50 value for the compound, i.e., the concentration of inhibitor required for 50% inhibition of enzyme activity. The IC50 value for compounds of structural formula (I) were determined using recombinant human PDE5.
The production of recombinant human PDEs and the IC50 determinations can be accomplished by well-known methods in the art. Exemplary methods are described as follows:
Recombinant production of human PDE1B, PDE2, PDE4A, PDE4B, PDE4C, PDE4D, PDE5, and PDE7 was carried out similarly to that described in Example 7 of U.S. Pat. No. 5,702,936, incorporated herein by reference, except that the yeast transformation vector employed, which is derived from the basic ADH2 plasmid described in Price et al., Methods in Enzymology, 185, pp. 308-318 (1990), incorporated yeast ADH2 promoter and terminator sequences and the Saccharomyces cerevisiae host was the protease-deficient strain BJ2-54 deposited on Aug. 31, 1998 with the American Type Culture Collection, Manassas, Va., under accession number ATCC 74465. Transformed host cells were grown in 2×SC-leu medium, pH 6.2, with trace metals, and vitamins. After 24 hours, YEP medium-containing glycerol was added to a final concentration of 2×YET/3% glycerol. Approximately 24 hr later, cells were harvested, washed, and stored at −70° C. […]
Cell pellets (29 g) were thawed on ice with an equal volume of Lysis Buffer (25 mM Tris HCl, pH 8, 5 mM MgCl2, 0.25 mM DTT, 1 mM benzamidine, and 10 μM ZnSO4). Cells were lysed in a Microfluidizer® (Microfluidics Corp.) using nitrogen at 20,000 psi. The lysate was centrifuged and filtered through 0.45 μm disposable filters. The filtrate was applied to a 150 mL column of Q SEPHAROSE® Fast-Flow (Pharmacia). The column was washed with 1.5 volumes of Buffer A (20 mM Bis-Tris Propane, pH 6.8, 1 mM MgCl2, 0.25 mM DTT, 10 μM ZnSO4) and eluted with a step gradient of 125 mM NaCl in Buffer A followed by a linear gradient of 125-1000 mM NaCl in Buffer A. Active fractions from the linear gradient were applied to a 180 mL hydroxyapatite column in Buffer B (20 mM Bis-Tris Propane (pH 6.8), 1 mM MgCl2, 0.25 mM DTT, 10 μM ZnSO4, and 250 mM KCl). After loading, the column was washed with 2 volumes of Buffer B and eluted with a linear gradient of 0-125 mM potassium phosphate in Buffer B. Active fractions were pooled, precipitated with 60% ammonium sulfate, and resuspended in Buffer C (20 mM Bis-Tris Propane, pH 6.8, 125 mM NaCl, 0.5 mM DTT, and 10 μM ZnSO4). The pool was applied to a 140 mL column of […]® S-300 HR and eluted with Buffer C. Active fractions were diluted to 50% glycerol and stored at −20° C.
cGMP-PDE activity of compounds of the present invention was measured using a one-step assay adapted from Wells et al., Biochim. Biophys. Acta, 384, 430 (1975). The reaction medium contained 50 mM Tris-HCl, pH 7.5, 5 mM magnesium acetate, 250 μg/ml 5′-Nucleotidase, 1 mM EGTA, and 0.15 μM 8-[H^3]-cGMP. Unless otherwise indicated, the enzyme used was a human recombinant PDE5 (ICOS Corp., Bothell, Wash.).
Compounds of the invention were dissolved in DMSO finally present at 2% in the assay.
As a reminder, the IC50 is the concentration at which inhibition is half-maximal. `O=C1[C@H]2Cc3c([nH]c4ccccc34)[C@@H](c3ccc4c(c3)OCO4)N2C(=O)CN1CCCn1ccnc1` [Example 32]: the IC50 turned out to be 10 nM.

Consider `O=C1CCCN1CCCN1CC(=O)N2[C@H](c3ccc4c(c3)OCO4)c3[nH]c4ccccc4c3C[C@@H]2C1=O` [Example 27], for which the IC50 was determined as 5.4 nM.

For the compound `O=C(O)c1ccc(CN2CC(=O)N3[C@H](c4ccc5c(c4)OCO5)c4[nH]c5ccccc5c4C[C@@H]3C2=O)cc1` [Example 47], the IC50 is 4.3 nM.

`O=C1[C@H]2Cc3c([nH]c4ccccc34)[C@@H](c3ccc4c(c3)OCO4)N2C(=O)CN1Cc1ccc(NS(=O)(=O)C(F)(F)F)cc1` [Example 57]: the IC50 amounted to 5.1 nM. To `Cn1cnc2cc(CN3CC(=O)N4[C@H](c5ccc6c(c5)OCO6)c5[nH]c6ccccc6c5C[C@@H]4C3=O)ccc21` [Example 85] belongs 20 nM; to `O=C(CN1CC(=O)N2[C@H](c3ccc4c(c3)OCO4)c3[nH]c4ccccc4c3C[C@@H]2C1=O)N1CCN(c2ccccc2)CC1` [Example 42], 140 nM; to `N#Cc1ccc(CN2CC(=O)N3[C@H](c4ccc5c(c4)OCO5)c4[nH]c5ccccc5c4C[C@@H]3C2=O)cc1` [Example 59], 70 nM. Next, `COCCCN1CC(=O)N2[C@H](c3ccc4c(c3)OCO4)c3[nH]c4ccccc4c3C[C@@H]2C1=O` [Example 25]: 10 nM; `O=C(CN1CC(=O)N2[C@H](c3ccc4c(c3)OCO4)c3[nH]c4ccccc4c3C[C@@H]2C1=O)NCc1ccccc1` [Example 30]: 20 nM; `O=C(CN1CC(=O)N2[C@H](c3ccc4c(c3)OCO4)c3[nH]c4ccccc4c3C[C@@H]2C1=O)OCc1ccccc1` [Example 68]: 40 nM. To `CNc1cc(CN2CC(=O)N3[C@H](c4ccc5c(c4)OCO5)c4[nH]c5ccccc5c4C[C@@H]3C2=O)cc([N+](=O)[O-])c1` [Example 83] belongs 40 nM; to `N#CCN1CC(=O)N2[C@H](c3ccc4c(c3)OCO4)c3[nH]c4ccccc4c3C[C@@H]2C1=O` [Example 60], 10 nM. With `CCCCN(C)C(=O)CCCN1CC(=O)N2[C@H](c3ccc4c(c3)OCO4)c3[nH]c4ccccc4c3C[C@@H]2C1=O` [Example 34], the IC50 came out at 10 nM. In the case of `O=C(CCN1CC(=O)N2[C@H](c3ccc4c(c3)OCO4)c3[nH]c4ccccc4c3C[C@@H]2C1=O)NC1CCCCC1` [Example 33], the half-maximal inhibitory concentration (IC50) amounted to 10 nM. Turning to `CC(C)(C)OC(=O)CN1CC(=O)N2[C@H](c3ccc4c(c3)OCO4)c3[nH]c4ccccc4c3C[C@@H]2C1=O` [Example 86], the IC50 turned out to be 70 nM.

Turning to `CN1CCN(CCN2CC(=O)N3[C@H](c4ccc5c(c4)OCO5)c4[nH]c5ccccc5c4C[C@@H]3C2=O)CC1` [Example 46], the IC50 came to 50 nM. Consider `O=C1[C@H]2Cc3c([nH]c4ccccc34)[C@@H](c3ccc4c(c3)OCO4)N2C(=O)CN1CCCn1cccn1` [Example 79], for which the IC50 stood at 6.3 nM. Regarding `O=C(O)CCN1CC(=O)N2[C@H](c3ccc4c(c3)OCO4)c3[nH]c4ccccc4c3C[C@@H]2C1=O` [Example 36], the IC50 amounted to 50 nM.

As to `O=C(CCCN1CC(=O)N2[C@H](c3ccc4c(c3)OCO4)c3[nH]c4ccccc4c3C[C@@H]2C1=O)NC1CCCCC1` [Example 35], the IC50 worked out at 4.3 nM. Next, `CON1CC(=O)N2[C@H](c3ccc4c(c3)OCO4)c3[nH]c4ccccc4c3C[C@@H]2C1=O` [Example 3, (6R,12aR)-6-Benzo[1,3]dioxol-5-yl-2-methoxy-2,3,6,7,12,12a-hexahydropyrazino[1′,2′:1,6]-pyrido[3,4-b]indole-1,4-dione]: 2.5 nM. With `CN(C)CCOc1ccc(CN2CC(=O)N3[C@H](c4ccc5c(c4)OCO5)c4[nH]c5ccccc5c4C[C@@H]3C2=O)cc1` [Example 81], the IC50 came out at 290 nM. To `O=C(CN1CC(=O)N2[C@H](c3ccc4c(c3)OCO4)c3[nH]c4ccccc4c3C[C@@H]2C1=O)Nc1ccccc1` [Example 28] belongs 3.9 nM. For `CCCCCCCCOC(=O)CN1CC(=O)N2[C@H](c3ccc4c(c3)OCO4)c3[nH]c4ccccc4c3C[C@@H]2C1=O` [Example 88], the IC50 was 110 nM. Regarding `O=C(CN1CC(=O)N2[C@H](c3ccc4c(c3)OCO4)c3[nH]c4ccccc4c3C[C@@H]2C1=O)Nc1ccncc1` [Example 38], the IC50 came to 3.9 nM. Turning to `CC(=O)NCCN1CC(=O)N2[C@H](c3ccc4c(c3)OCO4)c3[nH]c4ccccc4c3C[C@@H]2C1=O` [Example 26], the IC50 came to 10 nM.

Turning to `COCCN1CC(=O)N2[C@H](c3ccc4c(c3)OCO4)c3[nH]c4ccccc4c3C[C@@H]2C1=O` [Example 29], the IC50 came out at 5.9 nM. To `O=C(O)CCN1CC(=O)N2[C@H](c3ccc4c(c3)OCO4)c3[nH]c4ccccc4c3C[C@@H]2C1=O` [Example 72] belongs 2.3 nM; to `CC1C(=O)N2[C@H](c3ccc4c(c3)OCO4)c3[nH]c4ccccc4c3C[C@@H]2C(=O)N1CCN(C)C` (stereo partly drawn) [Example 8], 130 nM. Next, `O=C1[C@H]2Cc3c([nH]c4ccccc34)[C@@H](c3ccc4c(c3)OCO4)N2C(=O)CN1CCc1cnc[nH]1` [Example 64]: 20 nM; `O=C1[C@H]2Cc3c([nH]c4ccccc34)[C@@H](c3ccc4c(c3)OCO4)N2C(=O)CN1Cc1cccc(NS(=O)(=O)C(F)(F)F)c1` [Example 77]: 1.7 nM; `CC(C)(C)OC(=O)CCN1CC(=O)N2[C@H](c3ccc4c(c3)OCO4)c3[nH]c4ccccc4c3C[C@@H]2C1=O` [Example 71]: 10 nM. Next, `COC(=O)c1ccc(CN2CC(=O)N3[C@H](c4ccc5c(c4)OCO5)c4[nH]c5ccccc5c4C[C@@H]3C2=O)cc1` [Example 62]: 20 nM; `O=C(CN1CC(=O)N2[C@H](c3ccc4c(c3)OCO4)c3[nH]c4ccccc4c3C[C@@H]2C1=O)N1CCCCC1` [Example 31]: 20 nM. On to `NS(=O)(=O)c1ccc(CCN2CC(=O)N3[C@H](c4ccc5c(c4)OCO5)c4[nH]c5ccccc5c4C[C@@H]3C2=O)cc1` [Example 1, (6R-trans)-6-(1,3-Benzodioxol-5-yl)-2,3,6,7,12,12a-hexahydro-2-[2-(4-phenylsulfamoyl)-ethyl]pyrazino[1′,2′:1,6]pyrido[3,4-b]indole-1,4-dione], for which the IC50 is 1.4 nM.

As for `Nc1ccc(CCN2CC(=O)N3[C@H](c4ccc5c(c4)OCO5)c4[nH]c5ccccc5c4C[C@@H]3C2=O)cc1` [Example 66], the half-maximal inhibitory concentration (IC50) turned out to be 40 nM. To `NN1CC(=O)N2[C@H](c3ccc4c(c3)OCO4)c3[nH]c4ccccc4c3C[C@@H]2C1=O` [Example 4, (6R,12aR)-2-Amino-6-benzo[1,3]dioxo-5-yl-2,3,6,7,12,12a-hexahydropyrazino[1′, 2′:1,6]-pyrido[3,4-b]indole-1,4-dione] belongs 1.8 nM; to `NS(=O)(=O)c1ccc(CN2CC(=O)N3[C@H](c4ccc5c(c4)OCO5)c4[nH]c5ccccc5c4C[C@@H]3C2=O)cc1` [Example 58], 20 nM; to `CN1CCN(NC(=O)CN2CC(=O)N3[C@H](c4ccc5c(c4)OCO5)c4[nH]c5ccccc5c4C[C@@H]3C2=O)CC1` [Example 84], 120 nM. With `CCOC(=O)CCN1CC(=O)N2[C@H](c3ccc4c(c3)OCO4)c3[nH]c4ccccc4c3C[C@@H]2C1=O` [Example 24], the IC50 turned out to be 9.6 nM.

For the compound `O=C(O)CN1CC(=O)N2[C@H](c3ccc4c(c3)OCO4)c3[nH]c4ccccc4c3C[C@@H]2C1=O` [Example 69], the IC50 was 20 nM. To `O=C1C2Cc3c([nH]c4ccccc34)C(c3ccc4c(c3)OCO4)N2C(=O)CN1CCn1cncn1` (stereo not drawn) [Example 82] belongs 30 nM. To `CN(C(=O)CN1CC(=O)N2[C@H](c3ccc4c(c3)OCO4)c3[nH]c4ccccc4c3C[C@@H]2C1=O)c1ccccc1` [Example 43] belongs 100 nM.
